Measured values from patent US20060252807A1, “Novel ortho-terphenyl inhibitors of p38 kinase and methods of treating inflammatory disorders” (Kalypsys, Inc., priority 2005, published 2006).
pIC50: −log10 of the molar value.

Target: T1, active p38 alpha enzyme (Upstate Biotechnology) (Homo sapiens, UniProt Q16539)
T1 construct: purchased Upstate Biotechnology
Experiment: p38α biochemical assay (ATP turnover, luminescent detection, Cambrex PKlight)
Settings: p38α kinase; Table 1 Biological Activity
Summary of the method: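 Luminescent PKlight readout of total ATP consumption follows a 2 h, 30C kinase reaction. Enzyme and MapkapK2 substrate run with 1.4 uM ATP (final) in buffer containing Mg2+, Ca2+, chelators, glycerol, reducing agent and BSA; test compounds added by pintool from DMSO.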

T1 sequence (Q16539 whole entry): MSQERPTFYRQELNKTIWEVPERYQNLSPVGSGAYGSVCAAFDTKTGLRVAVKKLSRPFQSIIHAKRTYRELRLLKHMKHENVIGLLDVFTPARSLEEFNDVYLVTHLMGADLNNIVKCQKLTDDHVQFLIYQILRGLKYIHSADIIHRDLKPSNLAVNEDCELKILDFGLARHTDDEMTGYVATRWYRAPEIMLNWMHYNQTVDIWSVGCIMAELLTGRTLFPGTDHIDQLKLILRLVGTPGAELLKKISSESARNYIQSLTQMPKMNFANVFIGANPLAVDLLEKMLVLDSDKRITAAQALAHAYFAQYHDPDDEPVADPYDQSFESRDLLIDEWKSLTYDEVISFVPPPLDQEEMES

Row | Compound | pIC50
1 | CC(C)NC(=O)c1csc(-c2oc(CNc3cc(C(F)(F)F)cc(C(F)(F)F)c3)nc2-c2ccc(F)cc2)n1 [Example 1373] | < 6.00
2 | CC(C)NC(=O)c1csc(-c2oc(CNc3ccc(C(F)(F)F)cc3C(F)(F)F)nc2-c2ccc(F)cc2)n1 [Example 1374] | < 6.00
3 | CC(C)NC(=O)c1csc(-c2c(-c3ccc(F)cc3)noc2CNCCO)n1 [Example 1375] | < 6.00
4 | CCOC(=O)N1CCC(NCc2onc(-c3ccc(F)cc3)c2-c2nc(C(=O)NC(C)C)cs2)CC1 [Example 1376] | < 6.00
5 | COCCNCc1onc(-c2ccc(F)cc2)c1-c1nc(C(=O)NC(C)C)cs1 [Example 1377] | < 6.00
6 | CC(C)NC(=O)c1csc(-c2c(-c3ccc(F)cc3)noc2CNC2CCCc3ccccc32)n1 (centres unmarked) [Example 1378] | < 6.00
7 | COc1ccc(NCc2onc(-c3ccc(F)cc3)c2-c2nc(C(=O)NC(C)C)cs2)cc1OC [Example 1379] | < 6.00
8 | CC(C)NC(=O)c1csc(-c2c(-c3ccc(F)cc3)noc2CN(CCC#N)Cc2ccccc2)n1 [Example 1381] | < 6.00
9 | CNCc1onc(-c2ccc(F)cc2)c1-c1nc(C(=O)NC(C)C)cs1 [Example 1382] | < 6.00
10 | CCNCc1onc(-c2ccc(F)cc2)c1-c1nc(C(=O)NC(C)C)cs1 [Example 1383] | < 6.00
11 | C#CCNCc1onc(-c2ccc(F)cc2)c1-c1nc(C(=O)NC(C)C)cs1 [Example 1384] | < 6.00
12 | CC(C)NC(=O)c1csc(-c2c(-c3ccc(F)cc3)noc2CNCC#N)n1 [Example 1385] | ≥ 6.00
13 | CC(C)NC(=O)c1csc(-c2c(-c3ccc(F)cc3)noc2CNC2CC2)n1 [Example 1386] | < 6.00
14 | CC(C)NCc1onc(-c2ccc(F)cc2)c1-c1nc(C(=O)NC(C)C)cs1 [Example 1387] | < 6.00
15 | CCCNCc1onc(-c2ccc(F)cc2)c1-c1nc(C(=O)NC(C)C)cs1 [Example 1388] | < 6.00
16 | CC(C)NC(=O)c1csc(-c2c(-c3ccc(F)cc3)noc2CNCCN)n1 [Example 1389] | < 6.00

Row | Compound | pIC50
17 | CC(C)NC(=O)c1csc(-c2c(-c3ccc(F)cc3)noc2CNCCC#N)n1 [Example 1390] | < 6.00
18 | CC(C)NC(=O)c1csc(-c2c(-c3ccc(F)cc3)noc2CNC2CCC2)n1 [Example 1391] | < 6.00
19 | CC(C)NC(=O)c1csc(-c2c(-c3ccc(F)cc3)noc2CNCC2CC2)n1 [Example 1392] | < 6.00
20 | CCC(C)NCc1onc(-c2ccc(F)cc2)c1-c1nc(C(=O)NC(C)C)cs1 (centres unmarked) [Example 1393] | < 6.00
21 | CC(C)CNCc1onc(-c2ccc(F)cc2)c1-c1nc(C(=O)NC(C)C)cs1 [Example 1394] | < 6.00
22 | CC(C)NC(=O)c1csc(-c2c(-c3ccc(F)cc3)noc2CNCCCO)n1 [Example 1395] | < 6.00
23 | CC(C)NC(=O)c1csc(-c2c(-c3ccc(F)cc3)noc2CNC(C)CO)n1 (centres unmarked) [Example 1396] | < 6.00
24 | CC(C)NC(=O)c1csc(-c2c(-c3ccc(F)cc3)noc2CNC2CCCC2)n1 [Example 1397] | < 6.00
25 | CCCC(C)NCc1onc(-c2ccc(F)cc2)c1-c1nc(C(=O)NC(C)C)cs1 (centres unmarked) [Example 1398] | < 6.00
26 | CCC(C)CNCc1onc(-c2ccc(F)cc2)c1-c1nc(C(=O)NC(C)C)cs1 (centres unmarked) [Example 1399] | < 6.00
27 | CC(C)NC(=O)c1csc(-c2c(-c3ccc(F)cc3)noc2CNC(C)C(C)C)n1 (centres unmarked) [Example 1400] | < 6.00
28 | CC(C)CCNCc1onc(-c2ccc(F)cc2)c1-c1nc(C(=O)NC(C)C)cs1 [Example 1401] | < 6.00
29 | CC(C)NC(=O)c1csc(-c2c(-c3ccc(F)cc3)noc2CNCCN(C)C)n1 [Example 1402] | < 6.00
30 | COCC(C)NCc1onc(-c2ccc(F)cc2)c1-c1nc(C(=O)NC(C)C)cs1 (centres unmarked) [Example 1403] | < 6.00
31 | CCC(CO)NCc1onc(-c2ccc(F)cc2)c1-c1nc(C(=O)NC(C)C)cs1 (centres unmarked) [Example 1405] | < 6.00
32 | CC(C)NC(=O)c1csc(-c2c(-c3ccc(F)cc3)noc2CNCCCCO)n1 [Example 1406] | < 6.00
